Experimental data from patent US8399206B2, “Methods for diagnosis, prognosis and methods of treatment” (Nodality, Inc., priority 2008, dated 2013).

Key:
[1] = tested on: AML BMMC leukemic blasts; assay: SCNP modulated signaling assay, AML study No. 2 (BMMC, CR vs NR, clinical sub-groups); type: cell-based, human
Method: Two independent sets of cryopreserved samples were analyzed sequentially. The first set consisted of 35 peripheral blood mononuclear cell (PBMC) samples derived from AML patients. The second set consisted of 134 cryopreserved bone marrow mononuclear cell (BMMC) samples derived from AML patients. These samples were the same samples used in the previous examples. Sample inclusion criteria required collection prior to initiation of induction chemotherapy, AML classification by the French-American-British (FAB) criteria as M0 through M7 (excluding M3) and availability of clinical annotations.
In the first study, induction chemotherapy consisted of at least one cycle of standard cytarabine-based induction therapy (i.e. daunorubicin 60 mg/m^2×3 days, cytarabine 100-200 mg/m^2 continuous infusion×7 days); responses were measured after one cycle of induction therapy. In the second study, cytarabine (200 mg/m^2 to 3 g/m^2) was used in combination with an anthracycline (daunorubicin or idarubicin) or an additional anti-metabolite (e.g. fludarabine or troxacitabine), and sometimes, an experimental agent (Table 16). […] Standard clinical and laboratory criteria were used for defining complete response (CR) in both studies. […] Classified as “CRp,” these samples were included in the CR group for all primary analysis. The univariate analyses were also repeated with the CRp patients classified into the NR sample group for sensitivity analysis.
Cyropreserved samples were thawed at […], washed and centrifuged in PBS, 10% FBS and 2 mM EDTA. The cells were re-suspended, filtered to remove debris and washed in RPMI cell culture media, 1% FBS, then stained with Live/Dead Fixable Aqua Viability Dye to distinguish non-viable cells. The cells were then re-suspended in RPMI, 1% FBS, aliquoted to 100,000 cells/condition and rested for 1-2 hours at 37° C. prior to SCNP assays. Each condition included two to five phenotypic markers for cell population gating (eg, CD45, CD33), up to three intracellular stains or up to three additional surface markers or control antibodies for an eight-color flow cytometry assay.
Functional assays were performed as previously described. Cells were incubated with modulators (Table 18), at 37° C. for 3-15 minutes, fixed with 1.6% paraformaldehyde (final concentration) for 10 minutes at 37° C., pelleted and permeabilized with 100% ice-cold methanol and stored at −80° C.
Data was acquired using FACS DIVA software on both LSR II and CANTO II Flow Cytometers (BD). For all analyses, dead cells and debris were excluded by forward scatter (FSC), side scatter (SSC), and Amine Aqua Viability Dye measurement. Leukemic cells were identified as cells that lacked the characteristics of mature lymphocytes (CD45^++, CD33^−) and that fit the CD45 and CD33 versus right-angle light-scatter characteristics consistent with myeloid leukemia cells.
The median fluorescence intensity (MFI) was computed for each node from the fluorescence intensity levels for the cells in the myeloid population. The MFI values were then used to compute a variety of metrics by comparing them to baseline or background values, including the unmodulated condition, cellular autofluorescence and antibody isotype controls. The following metrics were computed: • 1. Basal MFI (“Basal”)=log2(MFIUnmodulated Stained)−log2(MFIGated Unstained (Autofluoresence)), designed to measure the basal levels of a certain protein under unmodulated conditions. • 2.

[2] = tested on: AML blasts; assay: SCNP / phospho-flow modulated signaling assay, AML study No. 1 (PBMC at diagnosis, CR vs NR); type: cell-based, human
Source text: The present illustrative example represents how to analyze cells in one embodiment of the present invention. There are several steps in the process, such as the stimulation step, the staining step and the flow cytometry step. The stimulation step of the phospho-flow procedure can start with vials of frozen cells and end with cells fixed and permeabilized in methanol. Then the cells can be stained with an antibody directed to a particular protein of interest and then analyzed using a flow cytometer.
Frozen cells are thawed in a 37° C. water bath and gently resuspended in the vial and transferred to the 15 mL conical tube. The 15 mL tube is centrifuged at 930 RPM (200×g) for 8 minutes at room temperature. The supernatant is aspirated and the pellet is gently resuspended in 1 mL media A. The cell suspension is filtered through a 70 um cell strainer into a new 15 mL tube. The cell strainer is rinsed with 1 mL media A and another 12 ml of media A into the 15 mL tube. The cells are mixed into an even suspension. A 20 μL aliquot is immediately removed into a 96-well plate containing 180 μL PBS+4% FBS+CD45 Alexa 700+PI to determine cell count and viability post spin. After the determination, the 15 mL tubes are centrifuged at 930 RPM (200×g) for 8 minutes at room temperature. The supernatant is aspirated and the cell pellet is gently resuspended in 4 mL PBS+4 μL Amine Aqua and incubated for 15 min in a 37° C. incubator. 10 mL RPMI+1% FBS is added to the cell suspension and the tube is inverted to mix the cells. The 15 mL tubes are centrifuged at 930 RPM (200×g) for 8 minutes at room temperature. The cells are resuspended in Media A at the desired cell concentration (1.25×10^6/mL). For samples with low numbers of cells (<18.5×10^6), the cells are resuspended in up to 15 mL media. For samples with high numbers of cells (>18.5×10^6), the volume is raised to 10 mL with media A and the desired volume is transferred to a new 15 mL tube, and the cell concentration is adjusted to 1.25×10^6 cells/ml. 1.6 mL of the above cell suspension (concentration at 1.25×10^6 cells/ml) is transferred into wells of a multi-well plate. From this plate, 80 ul is dispensed into each well of a subsequent plate. The plates are covered with a lid (Nunc) and placed in a 37° C. incubator for 2 hours to rest.
A concentration for each stimulant that is five folds more (5×) than the final concentration is prepared using Media A as diluent. 5× stimuli are arrayed into wells of a standard 96 well v-bottom plate that correspond to the wells on the plate with cells to be stimulated.
Adding the stimulant: The cell plate(s) are taken out of the incubator and placed in a 37° C. water bath next to the pipette apparatus. The cell plate is taken from the water bath and gently swirled to resuspend any settled cells. With pipettor, the stimulant is dispensed into the cell plate and vortexed at “7” for 5 seconds. The deep well plate is put back into the water bath.
Adding Fixative: 200 μl of the fixative solution (final concentration at 1.6%) is dispensed into wells and then mixed on the titer plate shaker on high for 5 seconds. The plate is covered with foil sealer and incubated in a 37° C. water bath for 10 minutes. The plate is spun for 6 minutes at 2000 rpm at room temperature. The cells are aspirated using a 96 well plate aspirator (VP Scientific). The plate is vortexed to resuspend cell pellets in the residual volume. The pellet is ensured to be dispersed before the Methanol step (see cell permeabilization) or clumping will occur.
Cell Permeabilization: Permeability agent, for example methanol, is added slowly and while the plate is vortexing. To do this, the cell plate is placed on titer plate shaker and made sure it is secure. The plate is set to shake using the highest setting. A pipetter is used to add 0.6 mls of 100% methanol to the plate wells. The plate(s) are put on ice until this step has been completed for all plates.

[3] = Study No. 2, all patients, CR samples
[4] = Study No. 1 sensitivity analysis, CR samples
[5] = Study No. 1 sensitivity analysis, NR samples incl. CRp
[6] = Study No. 2, all patients, CR samples, negative = down regulation
[7] = Study No. 2, all patients, NR samples

CCCCCCCCCCCCCC(=O)O[C@@H]1[C@@H](C)[C@@]2(O)[C@@H](C=C(CO)C[C@]3(O)C(=O)C(C)=C[C@@H]23)[C@@H]2C(C)(C)[C@]12OC(C)=O [PMA, reference compound]
Mean Value of CRs, p-Erk Fold [1, 3]: 2.82
Mean Value of CRs, p-CREB Total Phospho ([1]; Study No. 2, patients less than 60 years old, CR samples): 3.72
Mean Value of NRs, p-CREB Total Phospho ([1]; Study No. 2, patients less than 60 years old, NR samples): 5.00

EPO
Mean Value of CRs, p-Stat1 Total Phospho [2, 4]: 0.17
Mean Value of CRs, p-Stat3 Total Phospho [2, 4]: 0.64
Mean Value of NRs, p-Stat1 Total Phospho [2, 5]: 0.42
Mean Value of NRs, p-Stat3 Total Phospho [2, 5]: 1.23

GM-CSF: granulocyte macrophage stimulating factor
increase in p-Akt and p-S6 levels ([2]; Staurosporine Resistant category vs other apoptosis categories): greatest increase in p-Akt and p-S6 levels
Mean Value of CRs, p-Stat3 Total Phospho [2, 4]: 0.83
Mean Value of NRs, p-Stat3 Total Phospho [2, 5]: 1.23
Jak/Stat response (G-CSF: p-Stat3, p-Stat5; GM-CSF: p-Stat5) ([2]; all samples of the Staurosporine Resistant apoptosis category): Robust Jak/Stat responses

IGF-1
Mean Value of CRs, p-Plcγ2 Total Phospho [2, 4]: 1.82
Mean Value of CRs, p-CREB Alexa488 Total Phospho ([2]; Study No. 1 sensitivity analysis, CR samples, Alexa488 conjugate): 1.11
Mean Value of CRs, p-CREB PE Total Phospho ([2]; Study No. 1 sensitivity analysis, CR samples, PE conjugate): 1.42
Mean Value of NRs, p-Plcγ2 Total Phospho [2, 5]: 2.76
Mean Value of NRs, p-CREB Alexa488 Total Phospho ([2]; Study No. 1 sensitivity analysis, NR samples incl. CRp, Alexa488 conjugate): 1.62
Mean Value of NRs, p-CREB PE Total Phospho ([2]; Study No. 1 sensitivity analysis, NR samples incl. CRp, PE conjugate): 2.29

IL-6: interleukin 6, cytokine modulator
Mean Value of CRs, p-CREB Total Phospho [2, 4]: 1.58
Mean Value of CRs, p-Stat3 Total Phospho [2, 4]: 1.08
Mean Value of NRs, p-CREB Total Phospho [2, 5]: 2.44
Mean Value of NRs, p-Stat3 Total Phospho [2, 5]: 1.81
Mean Value of CRs, p-Stat3 Total Phospho [1, 3]: 1.76
Mean Value of CRs, p-Stat5 Fold [1, 3]: 0.13
Mean Value of CRs, p-Stat1 Fold [1, 6]: −0.01
Mean Value of CRs, p-Stat3 Fold [1, 6]: 0.12
Mean Value of NRs, p-Stat1 Fold [1, 7]: 0.26
Mean Value of NRs, p-Stat3 Fold [1, 7]: 1.09
Mean Value of NRs, p-Stat3 Total Phospho [1, 7]: 2.98
Mean Value of NRs, p-Stat5 Fold [1, 7]: 0.55

IL-10: interleukin 10, cytokine modulator
Mean Value of CRs, p-Stat1 Total Phospho [2, 4]: 0.17
Mean Value of CRs, p-Stat3 Total Phospho [2, 4]: 0.72
Mean Value of NRs, p-Stat1 Total Phospho [2, 5]: 0.47
Mean Value of NRs, p-Stat3 Total Phospho [2, 5]: 1.69
Mean Value of CRs, p-Stat5 Fold [1, 3]: 0.09
Mean Value of CRs, p-Stat3 Fold [1, 6]: 0.08
Mean Value of NRs, p-Stat3 Fold [1, 7]: 0.39
Mean Value of CRs, p-Stat5 Fold ([1]; Study No. 2, patients with de novo AML, CR samples): 0.06

B1: IFNg: interferon gamma, cytokine modulator (protein, UniProt P01579 24-161, looked up)
Interferon gamma: QDPYVKEAENLKKYFNAGHSDVADNGTLFLGILKNWKEESDRKIMQSQIVSFYFKLFKNFKDDQSIQKSVETIKEDMNVKFFNSNKKKRDDFEKLTNYSVTDLNVQRKAIHELIQVMAELSPAAKTGKRKRSQMLFRG
Mean Value of CRs, p-Stat1 Fold [2, 4]: 0.45
Mean Value of CRs, p-Stat1 Total Phospho [2, 4]: 0.67
Mean Value of CRs, p-Stat3 Total Phospho [2, 4]: 0.68
Mean Value of CRs, p-Stat5 Total Phospho [2, 4]: 1.62
Mean Value of NRs, p-Stat1 Total Phospho [2, 5]: 1.27
Mean Value of NRs, p-Stat3 Total Phospho [2, 5]: 1.3
Mean Value of NRs, p-Stat5 Total Phospho [2, 5]: 2.35
Mean Value of NRs, p-Stat1 Fold ([2]; Study No. 1 sensitivity analysis, NR samples incl. CRp, negative = down regulation): 0.91
Mean Value of CRs, p-Stat3 Fold [1, 6]: −0.02
Mean Value of NRs, p-Stat3 Fold [1, 7]: 0.2

B2: M-CSF (protein, UniProt P09603 33-554, looked up)
Macrophage colony-stimulating …: EEVSEYCSHMIGSGHLQSLQRLIDSQMETSCQITFEFVDQEQLKDPVCYLKKAFLLVQDIMEDTMRFRDNTPNAIAIVQLQELSLRLKSCFTKDYEEHDKACVRTFYETPLQLLEKVKNVFNETKNLLDKDWNIFSKNCNNSFAECSSQDVVTKPDCNCLYPKAIPSSDPASVSPHQPLAPSMAPVAGLTWEDSEGTEGSSLLPGEQPLHTVDPGSAKQRPPRSTCQSFEPPETPVVKDSTIGGSPQPRPSVGAFNPGMEDILDSAMGTNWVPEEASGEASEIPVPQGTELSPSRPGGGSMQTEPARPSNFLSASSPLPASAKGQQPADVTGTALPRVGPVRPTGQDWNHTPQKTDHPSALLRDPPEPGSPRISSLRPQGLSNPSTLSAQPQLSRSHSSGSVLPLGELEGRRSTRDRRSPAEPEGGPASEGAARPLPRFNSVPLTDTGHERQSEGSFSPQLQESVFHLLVPSVILVLLAVGGLLFYRWRRRSHQEPQRADSPLEQPEGSPLTQDDRQVELPV
Mean Value of CRs, p-Akt Fold [2, 4]: −0.16
Mean Value of CRs, p-CREB Total Phospho [2, 4]: 1.26
Mean Value of CRs, p-Plcγ2 Total Phospho [2, 4]: 1.79
Mean Value of NRs, p-Akt Fold [2, 5]: 0.05
Mean Value of NRs, p-CREB Total Phospho [2, 5]: 1.76
Mean Value of NRs, p-Plcγ2 Total Phospho [2, 5]: 2.8

B3: CD40L (protein, UniProt P29965 113-261, looked up)
CD40 ligand, soluble form: MQKGDQNPQIAAHVISEASSKTTSVLQWAEKGYYTMSNNLVTLENGKQLTVKRQGLYYIYAQVTFCSNREASSQAPFIASLCLKSPGRFERILLRAANTHSSAKPCGQQSIHLGGVFELQPGASVFVNVTDPSQVSHGTGFTSFGLLKL
Mean Value of CRs, p-CREB Total Phospho [2, 4]: 1.37
Mean Value of CRs, p-Erk Total Phospho [2, 4]: 1.18
Mean Value of NRs, p-CREB Total Phospho [2, 5]: 2.67
Mean Value of NRs, p-Erk Total Phospho [2, 5]: 1.62
